Test results as given in article PMC10965220 (Bioorganic chemistry, 2022).

Key:
[1] = target: T1, human COX-2 (Homo sapiens, UniProt P35354); experiment: In vitro COX-2 inhibition assay; conditions: for COX-2 SI: Selectivity index = COX-1 IC50/COX-2 IC50
T1 sequence (P35354 18-604): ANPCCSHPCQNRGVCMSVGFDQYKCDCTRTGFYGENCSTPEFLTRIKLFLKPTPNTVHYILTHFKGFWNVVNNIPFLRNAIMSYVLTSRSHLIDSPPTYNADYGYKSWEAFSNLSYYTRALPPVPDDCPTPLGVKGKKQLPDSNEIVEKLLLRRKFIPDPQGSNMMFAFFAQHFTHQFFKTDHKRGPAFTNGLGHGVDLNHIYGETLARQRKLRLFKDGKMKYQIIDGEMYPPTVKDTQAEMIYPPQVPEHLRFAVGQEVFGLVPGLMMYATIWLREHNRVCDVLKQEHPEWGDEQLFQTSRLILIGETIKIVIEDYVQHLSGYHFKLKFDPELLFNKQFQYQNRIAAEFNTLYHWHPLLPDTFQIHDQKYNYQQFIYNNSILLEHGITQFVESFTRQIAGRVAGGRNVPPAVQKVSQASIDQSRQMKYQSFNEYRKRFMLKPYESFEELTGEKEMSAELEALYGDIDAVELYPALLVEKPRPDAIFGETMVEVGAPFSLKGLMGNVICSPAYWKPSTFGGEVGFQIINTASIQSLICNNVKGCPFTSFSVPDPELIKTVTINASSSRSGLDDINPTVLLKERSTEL

[2] = target: T2, human COX-1 (Ovis aries, UniProt P05979); experiment: In vitro COX-1 inhibition assay
T2 sequence (P05979 25-600): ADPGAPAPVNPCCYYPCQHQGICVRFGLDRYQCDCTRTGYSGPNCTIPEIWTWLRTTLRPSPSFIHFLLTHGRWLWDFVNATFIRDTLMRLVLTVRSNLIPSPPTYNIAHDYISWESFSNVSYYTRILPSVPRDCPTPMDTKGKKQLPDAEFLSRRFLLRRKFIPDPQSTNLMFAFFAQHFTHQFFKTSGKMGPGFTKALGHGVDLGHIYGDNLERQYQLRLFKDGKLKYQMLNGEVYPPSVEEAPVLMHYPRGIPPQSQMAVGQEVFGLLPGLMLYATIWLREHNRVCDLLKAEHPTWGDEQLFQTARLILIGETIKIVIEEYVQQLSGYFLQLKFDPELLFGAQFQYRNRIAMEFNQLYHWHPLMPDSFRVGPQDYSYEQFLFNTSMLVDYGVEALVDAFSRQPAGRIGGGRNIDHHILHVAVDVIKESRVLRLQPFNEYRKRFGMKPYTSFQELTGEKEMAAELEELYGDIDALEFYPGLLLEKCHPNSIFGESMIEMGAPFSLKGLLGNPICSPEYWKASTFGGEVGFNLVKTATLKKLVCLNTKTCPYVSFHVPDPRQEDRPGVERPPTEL

[3] = tested on: LPS-induced NO production in RAW 264.7 cells; experiment: NO production in LPS-activated RAW 264.7 macrophages; type: cell-based, murine; conditions: vs reference celecoxib
[4] = tested on: LPS-induced ROS production in RAW 264.7 cells; experiment: ROS production in LPS-activated RAW 264.7 macrophages; type: cell-based, murine; conditions: vs reference celecoxib

IC50 [1] [µM]	COX-2 SI [1]	IC50 [2] [µM]	fold better NO IC50 than celecoxib [3]	fold lower ROS IC50 than celecoxib [4]	SMILES
0.05 ± 0.01	230	11.5 ± 1.01	–	–	CC(=O)c1ccc(NC(=O)CSc2nnc(-c3ccc(NC(=O)c4cccnc4)cc3)o2)cc1 [Compound 8a, N-(4-(5-((2-((4-Acetylphenyl)amino)-2-oxoethyl)thio)-1,3,4-oxadiazol-2-yl)phenyl)nicotinamide]
0.14 ± 0.01	60.71	8.5 ± 0.6	more than 41 fold	about 476 fold	O=C(CSc1nnc(-c2ccc(NC(=O)c3cccnc3)cc2)o1)Nc1ccc([N+](=O)[O-])cc1 [Compound 8b, N-(4-(5-((2-((4-Nitrophenyl)amino)-2-oxoethyl)thio)-1,3,4-oxadiazol-2-yl)phenyl)nicotinamide]
0.05 ± 0.01	230	11.5 ± 0.85	–	–	Cc1ccc(NC(=O)CSc2nnc(-c3ccc(NC(=O)c4cccnc4)cc3)o2)cc1 [Compound 8c, N-(4-(5-((2-((4-Methylphenyl)amino)-2-oxoethyl)thio)-1,3,4-oxadiazol-2-yl)phenyl)nicotinamide]
0.16 ± 0.04	65.63	10.5 ± 2.98	–	–	Cc1ccc(C)c(NC(=O)CSc2nnc(-c3ccc(NC(=O)c4cccnc4)cc3)o2)c1 [Compound 8d, N-(4-(5-((2-((2,5-Dimethylphenyl)amino)-2-oxoethyl)thio)-1,3,4-oxadiazol-2-yl)phenyl) nicotinamide]
0.11 ± 0.01	68.18	7.5 ± 0.75	–	–	O=C(CSc1nnc(-c2ccc(NC(=O)c3cccnc3)cc2)o1)Nc1ccc(F)cc1 [Compound 8e, N-(4-(5-((2-((4-Fluorophenyl)amino)-2-oxoethyl)thio)-1,3,4-oxadiazol-2-yl)phenyl)nicotinamide]
0.08 ± 0.01	125	10 ± 3.17	–	–	O=C(CSc1nnc(-c2ccc(NC(=O)c3cccnc3)cc2)o1)Nc1cccc(Br)c1 [Compound 8f, N-(4-(5-((2-((3-Bromophenyl)amino)-2-oxoethyl)thio)-1,3,4-oxadiazol-2-yl)phenyl)nicotinamide]
0.05 ± 0.01	170	8.5 ± 0.71	–	–	O=C(CSc1nnc(-c2ccc(NC(=O)c3cccnc3)cc2)o1)Nc1ccccc1Cl [Compound 8g, N-(4-(5-((2-((2-Chlorophenyl)amino)-2-oxoethyl)thio)-1,3,4-oxadiazol-2-yl)phenyl)nicotinamide]
0.11 ± 0.02	104.55	11.5 ± 0.98	–	–	Cc1ccc(C=Nn2c(-c3ccc(NC(=O)c4cccnc4)cc3)n[nH]c2=S)cc1 [Compound 10a, N-(4-(4-((4-Methylbenzylidene)amino)-5-thioxo-4,5-dihydro-1H-1,2,4-triazol-3-yl)phenyl) nicotinamide]
0.11 ± 0.01	72.73	8 ± 0.14	–	–	O=C(Nc1ccc(-c2n[nH]c(=S)n2N=Cc2c[nH]c3ccccc23)cc1)c1cccnc1 [Compound 10b, N-(4-(4-(((1H-Indol-3-yl)methylene)amino)-5-thioxo-4,5-dihydro-1H-1,2,4-triazol-3-yl)phenyl) nicotinamide]
0.11 ± 0.01	77.27	8.5 ± 0.62	–	–	CC(=O)c1ccc(NC(=O)CSc2nnc(-c3ccc(NC(=O)c4cccnc4)cc3)n2N)cc1 [Compound 11a, N-(4-(5-((2-((4-Acetylphenyl)amino)-2-oxoethyl)thio)-4-amino-4H-1,2,4-triazol-3-yl)phenyl) nicotinamide]
0.08 ± 0.01	143.75	11.5 ± 1.41	–	–	Nn1c(SCC(=O)Nc2ccc([N+](=O)[O-])cc2)nnc1-c1ccc(NC(=O)c2cccnc2)cc1 [Compound 11b, N-(4-(4-Amino-5-((2-((4-nitrophenyl)amino)-2-oxoethyl)thio)-4H-1,2,4-triazol-3-yl)phenyl) nicotinamide]
0.04 ± 0.01	337.5	13.5 ± 1.63	–	–	Cc1ccc(NC(=O)CSc2nnc(-c3ccc(NC(=O)c4cccnc4)cc3)n2N)cc1 [Compound 11c, N-(4-(4-Amino-5-((2-((4-methylphenyl)amino)-2-oxoethyl)thio)-4H-1,2,4-triazol-3-yl)phenyl) nicotinamide]
0.08 ± 0.01	131.25	10.5 ± 3.03	–	–	Cc1ccc(C)c(NC(=O)CSc2nnc(-c3ccc(NC(=O)c4cccnc4)cc3)n2N)c1 [Compound 11d, N-(4-(4-Amino-5-((2-((2,5-dimethylphenyl)amino)-2-oxoethyl)thio)-4H-1,2,4-triazol-3-yl)phenyl) nicotinamide]
0.06 ± 0.01	166.67	10 ± 2.34	–	–	Nn1c(SCC(=O)Nc2ccc(F)cc2)nnc1-c1ccc(NC(=O)c2cccnc2)cc1 [Compound 11e, N-(4-(4-Amino-5-((2-((4-fluorophenyl)amino)-2-oxoethyl)thio)-4H-1,2,4-triazol-3-yl)phenyl) nicotinamide]
0.09 ± 0.01	105.56	9.5 ± 0.99	–	–	Nn1c(SCC(=O)Nc2cccc(Br)c2)nnc1-c1ccc(NC(=O)c2cccnc2)cc1 [Compound 11f, N-(4-(4-Amino-5-((2-((3-bromophenyl)amino)-2-oxoethyl)thio)-4H-1,2,4-triazol-3-yl)phenyl) nicotinamide]
0.08 ± 0.01	131.25	10.5 ± 2.25	–	–	Nn1c(SCC(=O)Nc2ccccc2Cl)nnc1-c1ccc(NC(=O)c2cccnc2)cc1 [Compound 11g, N-(4-(4-Amino-5-((2-((2-chlorophenyl)amino)-2-oxoethyl)thio)-4H-1,2,4-triazol-3-yl)phenyl) nicotinamide]
